IC50 data for 35 compounds are collected here from US10336761B2, “TGFβ receptor antagonist” (BRISTOL-MYERS SQUIBB COMPANY, priority 2015, dated 2019).

HIS-TGFβR1 T204D, sequence (P36897 34-503 T204D): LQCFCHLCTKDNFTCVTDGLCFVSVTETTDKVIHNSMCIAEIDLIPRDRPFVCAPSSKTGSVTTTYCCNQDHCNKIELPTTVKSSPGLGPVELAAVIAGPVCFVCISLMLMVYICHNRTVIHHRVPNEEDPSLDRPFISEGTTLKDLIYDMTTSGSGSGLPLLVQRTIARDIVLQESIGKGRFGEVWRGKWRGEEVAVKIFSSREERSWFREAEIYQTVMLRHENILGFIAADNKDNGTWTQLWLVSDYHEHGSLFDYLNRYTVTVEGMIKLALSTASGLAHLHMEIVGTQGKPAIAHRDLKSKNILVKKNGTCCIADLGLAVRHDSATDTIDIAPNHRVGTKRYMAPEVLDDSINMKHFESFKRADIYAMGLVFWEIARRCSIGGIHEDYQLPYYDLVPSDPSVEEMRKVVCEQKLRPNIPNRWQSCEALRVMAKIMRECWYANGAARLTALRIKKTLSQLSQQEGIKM

This experiment has as its target HIS-TGFβR1 T204D (Homo sapiens (Human), UniProt P36897, T204D). Nature of the experiment: HTRF probe-displacement assay, HIS-TGFβR1 T204D. The experiment is classed as binding. The following applies: 1 hour at room temperature.
As to `FC(F)c1cnccc1Nc1nc(-c2cccc(C(F)(F)F)n2)nn2cccc12` [Example 2, 3-(difluoromethyl)-N-{2-[6-(trifluoromethyl)pyridin-2-yl]pyrrolo[2,1-f][1,2,4]triazin-4-yl}pyridin-4-amine], the IC50 was found to be 11 nM. This lies in the double-digit nanomolar range.

Take `Cc1nc(-c2nc(Nc3ccncc3Cl)c3cccn3n2)ccc1F` [Example 3, 3-chloro-N-[2-(5-fluoro-6-methylpyridin-2-yl)pyrrolo[2,1-f][1,2,4]triazin-4-yl]pyridin-4-amine]: the 50% inhibitory concentration (IC50) turned out to be 0.82 nM.

`Fc1ccc(-c2nc(Nc3ccncc3Cl)c3cccn3n2)nc1` [Example 4, 3-chloro-N-[2-(5-fluoropyridin-2-yl)pyrrolo[2,1-f][1,2,4]triazin-4-yl]pyridin-4-amine]: the concentration for half-maximal inhibition (IC50) stood at 0.59 nM.

`NC(=O)c1cccc(-c2nc(Nc3ccncc3F)c3cccn3n2)n1` [Example 5, 6-{4-[(3-fluoropyridin-4-yl)amino]pyrrolo[2,1-f][1,2,4]triazin-2-yl}pyridine-2-carboxamide] showed an IC50 of 65 nM.

In the case of `Cc1cncc(-c2nc(Nc3ccncc3Cl)c3cccn3n2)n1` [Example 6, 3-chloro-N-[2-(6-methylpyrazin-2-yl)pyrrolo[2,1-f][1,2,4]triazin-4-yl]pyridin-4-amine], the half-maximal inhibitory concentration (IC50) worked out at 68 nM. The IC50 values of the last two compounds are within 1.5-fold of each other.

Consider `Fc1c(Nc2nc(-c3cccc(C(F)F)n3)nn3cccc23)ccnc1Cl` [Example 7, 2-chloro-N-{2-[6-(difluoromethyl)pyridin-2-yl]pyrrolo[2,1-f][1,2,4]triazin-4-yl}-3-fluoropyridin-4-amine], for which the IC50 is 88 nM.

As for `CS(=O)(=O)Nc1cccc(-c2nc(Nc3ccncc3)c3cccn3n2)n1` [Example 8, N-(6-{4-[(pyridin-4-yl)amino]pyrrolo[2,1-f][1,2,4]triazin-2-yl}pyridin-2-yl)methanesulfonamide], the IC50 came to 12 nM.

For `Cn1nccc1-c1nc(Nc2ccncc2F)c2cccn2n1` [Example 10, 3-fluoro-N-[2-(1-methyl-1H-pyrazol-5-yl)pyrrolo[2,1-f][1,2,4]triazin-4-yl]pyridin-4-amine], the half-maximal inhibitory concentration (IC50) was determined as 610 nM. This IC50 lies about 51-fold higher than the previous one.

In turn, `CC(=O)Nc1cc(Nc2nc(-c3ccc(F)c(C(F)F)n3)nn3cccc23)ccn1` [Example 11, N-[4-({2-[6-(difluoromethyl)-5-fluoropyridin-2-yl]pyrrolo[2,1-f][1,2,4]triazin-4-yl}amino)pyridin-2-yl]acetamide] gave an IC50 of 6.1 nM.

On to `Cc1csc(-c2nc(Nc3ccncc3F)c3cccn3n2)n1` [Example 12, 3-fluoro-N-[2-(4-methyl-1,3-thiazol-2-yl)pyrrolo[2,1-f][1,2,4]triazin-4-yl]pyridin-4-amine], for which the IC50 stood at 0.8 nM.

With `CC(=O)Nc1cc(Nc2nc(-c3cccc(C(F)F)n3)nn3cccc23)ccn1` [Example 13, N-[4-({2-[6-(difluoromethyl)pyridin-2-yl]pyrrolo[2,1-f][1,2,4]triazin-4-yl}amino)pyridin-2-yl]acetamide], the 50% inhibitory concentration (IC50) was 0.19 nM.

Compound `Fc1cccc(-c2nc(Nc3ccncc3F)c3cccn3n2)n1` [Example 14, 3-fluoro-N-[2-(6-fluoropyridin-2-yl)pyrrolo[2,1-f][1,2,4]triazin-4-yl]pyridin-4-amine] registered an IC50 of 0.79 nM.

As for `COc1cccc(-c2nc(Nc3ccncc3C(F)F)c3cccn3n2)n1` [Example 15, 3-(difluoromethyl)-N-[2-(6-methoxypyridin-2-yl)pyrrolo[2,1-f][1,2,4]triazin-4-yl]pyridin-4-amine], the IC50 came out at 10 nM. This IC50 lies about 13-fold higher than the previous one.

The compound `COc1cccc(-c2nc(Nc3ccncc3)c3c(C)ccn3n2)n1` [Example 16, N-[2-(6-methoxypyridin-2-yl)-5-methylpyrrolo[2,1-f][1,2,4]triazin-4-yl]pyridin-4-amine] had an IC50 of 9.4 nM.

As to `Fc1cnccc1Nc1nc(-c2nc(C(F)(F)F)cs2)nn2cccc12` [Example 17, N-(3-fluoropyridin-4-yl)-2-(4-(trifluoromethyl)thiazol-2-yl)pyrrolo[2,1-f][1,2,4]triazin-4-amine], the IC50 is 0.72 nM.

`CC(=O)Nc1cc(Nc2nc(-c3ccc(F)c(C)n3)nn3cccc23)ccn1` [Example 19, N-(4-{[2-(5-fluoro-6-methylpyridin-2-yl)pyrrolo[2,1-f][1,2,4]triazin-4-yl]amino}pyridin-2-yl)acetamide] displayed an IC50 of 0.84 nM.

`CC(=O)Nc1nccc(Nc2nc(-c3cccc(C(F)(F)F)n3)nn3cccc23)c1F` [Example 20, N-[3-fluoro-4-({2-[6-(trifluoromethyl)pyridin-2-yl]pyrrolo[2,1-f][1,2,4]triazin-4-yl}amino)pyridin-2-yl]acetamide]: the IC50 came out at 80 nM. This IC50 lies about 95-fold higher than the previous one.

With `COc1cccc(-c2nc(Nc3ccncc3F)c3cc(NS(C)(=O)=O)cn3n2)n1` [Example 22, N-{4-[(3-fluoropyridin-4-yl)amino]-2-(6-methoxypyridin-2-yl)pyrrolo[2,1-f][1,2,4]triazin-6-yl}methanesulfonamide], the IC50 amounted to 56 nM.

Regarding `Fc1cnccc1Nc1nc(-c2cccc(C(F)F)n2)nn2ccc(CN3CCC(F)(F)CC3)c12` [Example 23, N-{2-[6-(difluoromethyl)pyridin-2-yl]-5-[(4,4-difluoropiperidin-1-yl)methyl]pyrrolo[2,1-f][1,2,4]triazin-4-yl}-3-fluoropyridin-4-amine], the IC50 stood at 1.1 nM.

Regarding `CC(=O)Nc1cc(Nc2nc(-c3ccccn3)nn3ccc(CN4CCC(F)(F)CC4)c23)ccn1` [Example 24, N-[4-({5-[(4,4-difluoropiperidin-1-yl)methyl]-2-(pyridin-2-yl)pyrrolo[2,1-f][1,2,4]triazin-4-yl}amino)pyridin-2-yl]acetamide], the IC50 was 0.4 nM.

As to `COc1cccc(-c2nc(Nc3ccncc3F)c3c(CN4CCC(F)(F)CC4)ccn3n2)n1` [Example 25, N-{5-[(4,4-difluoropiperidin-1-yl)methyl]-2-(6-methoxypyridin-2-yl)pyrrolo[2,1-f][1,2,4]triazin-4-yl}-3-fluoropyridin-4-amine], the IC50 turned out to be 9 nM. This IC50 is about 22-fold higher than that of the compound before.

`CN1CCN(Cc2ccn3nc(-c4cccc(C(F)(F)F)n4)nc(Nc4ccncc4F)c23)CC1` [Example 26, 3-fluoro-N-{5-[(4-methylpiperazin-1-yl)methyl]-2-[6-(trifluoromethyl)pyridin-2-yl]pyrrolo[2,1-f][1,2,4]triazin-4-yl}pyridin-4-amine]: the concentration for half-maximal inhibition (IC50) came to 32 nM.

On to `Fc1cnccc1Nc1nc(-c2ccccn2)nn2ccc(CN3CCC(F)(F)CC3)c12` [Example 27, N-{5-[(4,4-difluoropiperidin-1-yl)methyl]-2-(pyridin-2-yl)pyrrolo[2,1-f][1,2,4]triazin-4-yl}-3-fluoropyridin-4-amine], for which the half-maximal inhibitory concentration (IC50) amounted to 1.3 nM.

The compound `COc1cccc(-c2nc(Nc3ccncc3F)c3c(C(O)CO)ccn3n2)n1` (centres unmarked) [Example 28, 1-{4-[(3-fluoropyridin-4-yl)amino]-2-(6-methoxypyridin-2-yl)pyrrolo[2,1-f][1,2,4]triazin-5-yl}ethane-1,2-diol] came in with an IC50 of 16 nM. Compared with the last compound, the IC50 is about 12-fold higher.

`CCc1cc2c(Nc3ccncc3F)nc(-c3cccc(OC)n3)nn2c1` [Example 29, 6-ethyl-N-(3-fluoropyridin-4-yl)-2-(6-methoxypyridin-2-yl)pyrrolo[2,1-f][1,2,4]triazin-4-amine] returned an IC50 of 16 nM.

As for `COc1cccc(-c2nc(Nc3ccncc3F)c3c(C(O)CN4CCC(N(C)C)CC4)ccn3n2)n1` (centres unmarked) [Example 30, 2-[4-(dimethylamino)piperidin-1-yl]-1-{4-[(3-fluoropyridin-4-yl)amino]-2-(6-methoxypyridin-2-yl)pyrrolo[2,1-f][1,2,4]triazin-5-yl}ethan-1-ol], the IC50 came to 260 nM.

`COc1cccc(-c2nc(NCc3ccncc3)c3cccn3n2)n1` [Example 31, 2-(6-methoxypyridin-2-yl)-N-(pyridin-4-ylmethyl)pyrrolo[2,1-f][1,2,4]triazin-4-amine] gave an IC50 of 810 nM.

In turn, `CC(O)c1cccc(-c2nc(Nc3ccncc3F)c3cccn3n2)n1` (centres unmarked) [Example 32, 1-(6-{4-[(3-fluoropyridin-4-yl)amino]pyrrolo[2,1-f][1,2,4]triazin-2-yl}pyridin-2-yl)ethan-1-ol] displayed an IC50 of 70 nM. This IC50 is about 12-fold lower than that of the compound before.

`O=C(CN1CCCC1)Nc1cc(Nc2nc(-c3cccc(C(F)F)n3)nn3cccc23)ccn1` [Example 33, N-[4-({2-[6-(difluoromethyl)pyridin-2-yl]pyrrolo[2,1-f][1,2,4]triazin-4-yl}amino)pyridin-2-yl]-2-(pyrrolidin-1-yl)acetamide] returned an IC50 of 0.9 nM.

Take `COc1cccc(-c2nc(Nc3ccnc(NCCN4CCC(F)(F)CC4)c3)c3cccn3n2)n1` [Example 34, 2-N-[2-(4,4-difluoropiperidin-1-yl)ethyl]-4-N-[2-(6-methoxypyridin-2-yl)pyrrolo[2,1-f][1,2,4]triazin-4-yl]pyridine-2,4-diamine]: the IC50 was found to be 480 nM.

In turn, `Cc1nc(-c2nc(Nc3ccncc3C(=O)NCCN3CCS(=O)(=O)CC3)c3cccn3n2)ccc1F` [Example 35, N-[2-(1,1-dioxo-1,4-thiomorpholin-4-yl)ethyl]-4-{[2-(5-fluoro-6-methylpyridin-2-yl)pyrrolo[2,1-f][1,2,4]triazin-4-yl]amino}pyridine-3-carboxamide] yielded an IC50 of 22 nM.

As for `Cc1cccc(-c2nc(Nc3ccncc3C(=O)NCCCN3CCS(=O)(=O)CC3)c3cccn3n2)n1` [Example 36, N-(3-(1,1-dioxidothiomorpholino)propyl)-4-((2-(6-methylpyridin-2-yl)pyrrolo[2,1-f][1,2,4]triazin-4-yl)amino)nicotinamide], the IC50 was determined as 3 nM.

Turning to `O=C(NCCCN1CCCC1)c1cnccc1Nc1nc(-c2cccc(C(F)(F)F)n2)nn2cccc12` [Example 37], the IC50 turned out to be 47 nM.

As to `COc1cccc(-c2nc(Nc3ccncc3COCCCN3CCOCC3)c3cccn3n2)n1` [Example 38, N-[2-(6-methoxypyridin-2-yl)pyrrolo[2,1-f][1,2,4]triazin-4-yl]-3-{[3-(morpholin-4-yl)propoxy]methyl}pyridin-4-amine], the IC50 was 680 nM.

Compound `COc1cccc(-c2nc(Nc3ccncc3F)c3cc(C(C)(C)O)cn3n2)n1` [Example 39, 2-{4-[(3-fluoropyridin-4-yl)amino]-2-(6-methoxypyridin-2-yl)pyrrolo[2,1-f][1,2,4]triazin-6-yl}propan-2-ol] registered an IC50 of 1600 nM.
